Experimental data from patent publication US9125388B2, “Biological control” (Isis Innovation Limited, priority 1999, dated 2015).

Assays:
Experiment in all cases: Recombinant chromosome experiments: parents raised on supplement, progeny on normal food, adults by sex (25, 18 or 29° C.)
Type in all cases: in vivo, Drosophila melanogaster
[1] = tested on: Sxl^pe-tTA, tRE-Ras64B^V12 on the third chromosome; conditions: for Female progeny Total / Male progeny Total: Day 1-12 total
[2] = tested on: Sxl^pe-tTA, tRE-Ras64B^V12 on the X chromosome; conditions: for Female progeny / Male progeny: 18° C., then tetracycline-free food; for Female progeny per daily vial / Female progeny Total / Male progeny Total: 25° C.; for Female progeny per daily vial: Day 1-12 on tetracycline-free food; for Female progeny Total / Male progeny Total: Day 1-12 total; for Female progeny emerging as adults / Male progeny emerging as adults: 29° C.
[3] = tested on: Hsp26 tTa, tRe Msl-1^Mpu on the 2nd chromosome
[4] = tested on: Sxl^pe-tTA, tRE-Msl-2^Nopu on the third chromosome; conditions: for Female progeny per daily vial / Female progeny Total / Male progeny Total: 25° C.; for Female progeny per daily vial: Day 1-12 on tetracycline-free food; for Female progeny Total / Male progeny Total: Day 1-12 total
[5] = parents raised on Tet. 0.1 μg/ml, 25° C.
[6] = parents raised on Tet. 1 μg/ml, 25° C.
[7] = parents raised on Tet. 5 μg/ml, 25° C.
[8] = parents raised on Tet. 20 μg/ml, 25° C.
[9] = parents raised on Tet. 100 μg/ml, 25° C.
[10] = parents raised on Tet. 500 μg/ml, 25° C.
[11] = parents raised on Tet. 1000 μg/ml, 25° C.
[12] = parents raised on Tet. 2000 μg/ml, 25° C.
[13] = parents raised on tetracycline 0.1 μg/ml, 18° C.
[14] = parents raised on tetracycline 0.1 μg/ml, 29° C.
[15] = parents raised on tetracycline 1 μg/ml, 18° C.
[16] = parents raised on tetracycline 1 μg/ml, 29° C.
[17] = parents raised on tetracycline 5 μg/ml, 18° C.
[18] = parents raised on tetracycline 5 μg/ml, 29° C.
[19] = parents raised on Tetracycline 0.1 μg/ml
[20] = parents raised on Tetracycline 1 μg/ml
[21] = parents raised on Tetracycline 5 μg/ml
[22] = parents raised on Tet. 0.1 μg/ml
[23] = parents raised on Tet. 20 μg/ml
[24] = parents raised on Tet. 100 μg/ml
[25] = parents raised on Tet. 500 μg/ml
[26] = parents raised on Tet. 1000 μg/ml
[27] = parents raised on Tet. 2000 μg/ml
[28] = parents raised on tetracycline 0.1 μg/ml
[29] = parents raised on tetracycline 1 μg/ml
[30] = parents raised on tetracycline 5 μg/ml

Structure (SMILES): CN(C)[C@@H]1C(O)=C(C(N)=O)C(=O)[C@@]2(O)C(O)=C3C(=O)c4c(O)cccc4[C@@](C)(O)[C@H]3C[C@@H]12 [Tetracycline, tetracycline]
- Female progeny per daily vial ([1]; parents raised on Tet. 0.1 μg/ml, 25° C., Day 1-12 on tetracycline-free food): 0
- Female progeny Total [1, 5]: 0
- Male progeny Total [1, 5]: 1541
- Female progeny per daily vial ([1]; parents raised on Tet. 1 μg/ml, 25° C., Day 1-12 on tetracycline-free food): 0
- Female progeny Total [1, 6]: 0
- Male progeny Total [1, 6]: 1441
- Female progeny per daily vial ([1]; parents raised on Tet. 5 μg/ml, 25° C., Day 1-12 on tetracycline-free food): 0
- Female progeny Total [1, 7]: 0
- Male progeny Total [1, 7]: 1421
- Female progeny per daily vial ([1]; parents raised on Tet. 20 μg/ml, 25° C., Day 1-12 on tetracycline-free food): 0
- Female progeny Total [1, 8]: 0
- Male progeny Total [1, 8]: 1487
- Female progeny per daily vial ([1]; parents raised on Tet. 100 μg/ml, 25° C., Day 1-12 on tetracycline-free food): 0
- Female progeny Total [1, 9]: 0
- Male progeny Total [1, 9]: 1416
- Female progeny Total [1, 10]: 72
- Male progeny Total [1, 10]: 1388
- Female progeny Total [1, 11]: 87
- Male progeny Total [1, 11]: 1416
- Male progeny per daily vial ([1]; parents raised on Tet. 2000 μg/ml, 25° C., Day 1-12 on tetracycline-free food, listed as Tet.): 123
- Female progeny Total [1, 12]: 161
- Male progeny Total [1, 12]: 1438
- Female progeny emerging as adults [1, 13]: 6
- Male progeny emerging as adults [1, 13]: 1065
- Female progeny emerging as adults [1, 14]: 0
- Male progeny emerging as adults [1, 14]: 781
- Female progeny emerging as adults [1, 15]: 9
- Male progeny emerging as adults [1, 15]: 1124
- Female progeny emerging as adults [1, 16]: 0
- Male progeny emerging as adults [1, 16]: 749
- Female progeny emerging as adults [1, 17]: 7
- Male progeny emerging as adults [1, 17]: 989
- Female progeny emerging as adults [1, 18]: 0
- Male progeny emerging as adults [1, 18]: 741
- Female progeny [2, 19]: 8
- Male progeny [2, 19]: 982
- Female progeny [2, 20]: 10
- Male progeny [2, 20]: 912
- Female progeny [2, 21]: 7
- Male progeny [2, 21]: 871
- Female progeny per daily vial [2, 22]: 0
- Female progeny Total [2, 22]: 0
- Male progeny Total [2, 22]: 1262
- Female progeny per daily vial ([2]; parents raised on Tet. 1 μg/ml): 0
- Female progeny Total ([2]; parents raised on Tet. 1 μg/ml): 0
- Male progeny Total ([2]; parents raised on Tet. 1 μg/ml): 1399
- Female progeny per daily vial ([2]; parents raised on Tet. 5 μg/ml): 0
- Female progeny Total ([2]; parents raised on Tet. 5 μg/ml): 0
- Male progeny Total ([2]; parents raised on Tet. 5 μg/ml): 1359
- Female progeny per daily vial [2, 23]: 0
- Female progeny Total [2, 23]: 0
- Male progeny Total [2, 23]: 1398
- Female progeny per daily vial [2, 24]: 0
- Female progeny Total [2, 24]: 0
- Male progeny Total [2, 24]: 1469
- Female progeny Total [2, 25]: 25
- Male progeny Total [2, 25]: 1478
- Female progeny Total [2, 26]: 49
- Male progeny Total [2, 26]: 1349
- Female progeny Total [2, 27]: 92
- Male progeny Total [2, 27]: 1439
- Female progeny emerging as adults [2, 28]: 0
- Male progeny emerging as adults [2, 28]: 716
- Female progeny emerging as adults [2, 29]: 0
- Male progeny emerging as adults [2, 29]: 711
- Female progeny emerging as adults [2, 30]: 0
- Male progeny emerging as adults [2, 30]: 715
- Female progeny emerging as adults [3, 13]: 6
- Male progeny emerging as adults [3, 13]: 628
- Female progeny emerging as adults [3, 14]: 0
- Male progeny emerging as adults [3, 14]: 733
- Female progeny emerging as adults [3, 15]: 3
- Male progeny emerging as adults [3, 15]: 614
- Female progeny emerging as adults [3, 16]: 0
- Male progeny emerging as adults [3, 16]: 776
- Female progeny emerging as adults [3, 17]: 5
- Male progeny emerging as adults [3, 17]: 712
- Female progeny emerging as adults [3, 18]: 0
- Male progeny emerging as adults [3, 18]: 728
- Female progeny per daily vial [4, 22]: 0
- Female progeny Total [4, 22]: 0
- Male progeny Total [4, 22]: 1267
- Female progeny per daily vial ([4]; parents raised on Tet. 1 μg/ml): 0
- Female progeny Total ([4]; parents raised on Tet. 1 μg/ml): 0
- Male progeny Total ([4]; parents raised on Tet. 1 μg/ml): 1171
- Female progeny per daily vial ([4]; parents raised on Tet. 5 μg/ml): 0
- Female progeny Total ([4]; parents raised on Tet. 5 μg/ml): 0
- Male progeny Total ([4]; parents raised on Tet. 5 μg/ml): 1165
- Female progeny per daily vial [4, 23]: 0
- Female progeny Total [4, 23]: 0
- Male progeny Total [4, 23]: 1127
- Female progeny per daily vial [4, 24]: 0
- Female progeny Total [4, 24]: 0
- Male progeny Total [4, 24]: 1168
- Female progeny per daily vial [4, 25]: 0
- Female progeny Total [4, 25]: 0
- Male progeny Total [4, 25]: 1137
- Female progeny Total [4, 26]: 3
- Male progeny Total [4, 26]: 1309
- Female progeny Total [4, 27]: 32
- Male progeny Total [4, 27]: 1325
- Female progeny emerging as adults [4, 13]: 2
- Male progeny emerging as adults [4, 13]: 973
- Female progeny emerging as adults [4, 14]: 0
- Male progeny emerging as adults [4, 14]: 749
- Female progeny emerging as adults [4, 15]: 9
- Male progeny emerging as adults [4, 15]: 985
- Female progeny emerging as adults [4, 16]: 0
- Male progeny emerging as adults [4, 16]: 737
- Female progeny emerging as adults [4, 17]: 5
- Male progeny emerging as adults [4, 17]: 983
- Female progeny emerging as adults [4, 18]: 0
- Male progeny emerging as adults [4, 18]: 718
